Measured values from ChEMBL document CHEMBL1201862, “PubChem BioAssay data set” (2004).
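1) Cells in 96-well plates. 2) Compound, 48 h, 5 concentrations. 3) Linear interpolation between surrounding doses. 4) Unreached endpoint = highest concentration. GI50 is the concentration that inhibits growth by half.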 Calls of active or inactive are those of the source. No stated cut-off is given here; in the data, active = GI50 up to about 1.1 µM and inactive = higher.

How the values were obtained:
Experiment in all cases: growth of human tumour cells (NCI), 48 h
KM12 = test system: KM12
CCRF-CEM = test system: CCRF-CEM
A498 = test system: A498
HCC 2998 = test system: HCC 2998
UO-31 = test system: UO-31
UACC-62 = test system: UACC-62
NCI-H522 = test system: NCI-H522
EKVX = test system: EKVX
U-251 = test system: U-251
NCI-H460 = test system: NCI-H460
HOP-92 = test system: HOP-92
SW-620 = test system: SW-620
HL-60 = test system: HL-60
NCI-H226 = test system: NCI-H226
SNB-75 = test system: SNB-75
SN12C = test system: SN12C
RPMI-8226 = test system: RPMI-8226
HCT-116 = test system: HCT-116
NCI-H23 = test system: NCI-H23
SK-OV-3 = test system: SK-OV-3

Structure (SMILES): Cc1ccc(/C=C2\Cc3c(C)cc(C)cc3C2=O)c(C(=O)O)c1
- GI50 (KM12): 46.3 µM (inactive)
- GI50 (CCRF-CEM): 35.1 µM (inactive)
- GI50 (A498): 30.1 µM (inactive)
- GI50 (HCC 2998): 38.4 µM (inactive)
- GI50 (UO-31): 50.7 µM (inactive)
- GI50 (UACC-62): 41.1 µM (inactive)
- GI50 (NCI-H522): 78.9 µM (inactive)
- GI50 (EKVX): 33.4 µM (inactive)
- GI50 (U-251): 29.9 µM (inactive)
- GI50 (NCI-H460): 48.2 µM (inactive)
- GI50 (HOP-92): 36.1 µM (inactive)
- GI50 (SW-620): 47.4 µM (inactive)
- GI50 (HL-60): 23.1 µM (inactive)
- GI50 (NCI-H226): 23.8 µM (inactive)
- GI50 (SNB-75): 58.9 µM (inactive)
- GI50 (SN12C): 67.5 µM (inactive)
- GI50 (RPMI-8226): 19.3 µM (inactive)
- GI50 (HCT-116): 49.4 µM (inactive)
- GI50 (NCI-H23): 55.5 µM (inactive)

Structure (SMILES): O=c1ccn(C2OC(COC3CCCCO3)C(OC3CCCCO3)C2OC2CCCCO2)c(=O)n1-c1ccccc1 (stereo not drawn)
- GI50 (KM12): > 100 µM (inactive)
- GI50 (CCRF-CEM): > 100 µM (inactive)
- GI50 (A498): > 100 µM (inactive)
- GI50 (HCC 2998): > 100 µM (inactive)
- GI50 (UO-31): > 100 µM (inactive)
- GI50 (NCI-H522): > 100 µM (inactive)
- GI50 (EKVX): > 100 µM (inactive)
- GI50 (U-251): > 100 µM (inactive)
- GI50 (NCI-H460): > 100 µM (inactive)
- GI50 (HOP-92): > 100 µM (inactive)
- GI50 (SW-620): > 100 µM (inactive)
- GI50 (HL-60): > 100 µM (inactive)
- GI50 (NCI-H226): > 100 µM (inactive)
- GI50 (SNB-75): > 100 µM (inactive)
- GI50 (SN12C): > 100 µM (inactive)
- GI50 (RPMI-8226): > 100 µM (inactive)
- GI50 (SK-OV-3): > 100 µM (inactive)
- GI50 (HCT-116): > 100 µM (inactive)
- GI50 (NCI-H23): > 100 µM (inactive)

Structure (SMILES): CC(C)C(=O)Nc1cc(C(F)(F)F)ccc1[N+](=O)[O-]
- GI50 (KM12): > 100 µM (inactive)
- GI50 (CCRF-CEM): > 100 µM (inactive)
- GI50 (A498): > 100 µM (inactive)
- GI50 (HCC 2998): > 100 µM (inactive)
- GI50 (UO-31): > 100 µM (inactive)
- GI50 (UACC-62): > 100 µM (inactive)
- GI50 (NCI-H522): > 100 µM (inactive)
- GI50 (EKVX): > 100 µM (inactive)
- GI50 (U-251): > 100 µM (inactive)
- GI50 (NCI-H460): 72.6 µM (inactive)
- GI50 (HOP-92): > 100 µM (inactive)
- GI50 (SW-620): > 100 µM (inactive)
- GI50 (HL-60): 94 µM (inactive)
- GI50 (NCI-H226): > 100 µM (inactive)
- GI50 (SN12C): > 100 µM (inactive)
- GI50 (RPMI-8226): 72.8 µM (inactive)
- GI50 (SK-OV-3): > 100 µM (inactive)
- GI50 (HCT-116): > 100 µM (inactive)
- GI50 (NCI-H23): > 100 µM (inactive)

Structure (SMILES): O=C1OC(=O)c2c1cc1cc3c(cc1c2-c1ccc2c(c1)OCO2)OCO3
- GI50 (KM12): > 100 µM (inactive)
- GI50 (CCRF-CEM): > 100 µM (inactive)
- GI50 (A498): > 100 µM (inactive)
- GI50 (HCC 2998): > 100 µM (inactive)
- GI50 (UO-31): > 100 µM (inactive)
- GI50 (UACC-62): > 100 µM (inactive)
- GI50 (NCI-H522): > 100 µM (inactive)
- GI50 (U-251): > 100 µM (inactive)
- GI50 (NCI-H460): > 100 µM (inactive)
- GI50 (HOP-92): > 100 µM (inactive)
- GI50 (SW-620): > 100 µM (inactive)
- GI50 (HL-60): > 100 µM (inactive)
- GI50 (NCI-H226): > 100 µM (inactive)
- GI50 (SNB-75): > 100 µM (inactive)
- GI50 (SN12C): > 100 µM (inactive)
- GI50 (RPMI-8226): > 100 µM (inactive)
- GI50 (HCT-116): > 100 µM (inactive)
- GI50 (NCI-H23): > 100 µM (inactive)

Structure (SMILES): CCOC(=O)C(NC(=O)c1cccc(Cl)c1)(Nc1ccc(S(=O)(=O)Nc2cc(C)on2)cc1)C(F)(F)F (stereo not drawn)
- GI50 (KM12): > 100 µM (inactive)
- GI50 (CCRF-CEM): > 100 µM (inactive)
- GI50 (A498): > 100 µM (inactive)
- GI50 (HCC 2998): > 100 µM (inactive)
- GI50 (UO-31): > 100 µM (inactive)
- GI50 (NCI-H522): > 100 µM (inactive)
- GI50 (EKVX): > 100 µM (inactive)
- GI50 (U-251): > 100 µM (inactive)
- GI50 (NCI-H460): > 100 µM (inactive)
- GI50 (HOP-92): > 100 µM (inactive)
- GI50 (SW-620): > 100 µM (inactive)
- GI50 (HL-60): > 100 µM (inactive)
- GI50 (NCI-H226): > 100 µM (inactive)
- GI50 (SNB-75): > 100 µM (inactive)
- GI50 (SN12C): > 100 µM (inactive)
- GI50 (RPMI-8226): > 100 µM (inactive)
- GI50 (SK-OV-3): > 100 µM (inactive)
- GI50 (HCT-116): > 100 µM (inactive)
- GI50 (NCI-H23): > 100 µM (inactive)

Structure (SMILES): COc1cc(C2c3cc4c(cc3[C@@H](Oc3ccc(F)cc3)C3COC(=O)[C@H]23)OCO4)cc(OC)c1O (stereo partly drawn)
- GI50 (KM12): 4.03 µM (inactive)
- GI50 (CCRF-CEM): 0.368 µM (active)
- GI50 (A498): 0.236 µM (active)
- GI50 (HCC 2998): 2.28 µM (inactive)
- GI50 (UO-31): > 67.5 µM (inactive)
- GI50 (UACC-62): 0.518 µM (active)
- GI50 (NCI-H522): 0.217 µM (active)
- GI50 (EKVX): > 43.8 µM (inactive)
- GI50 (U-251): 0.365 µM (active)
- GI50 (NCI-H460): 0.343 µM (active)
- GI50 (HOP-92): 1.2 µM (inactive)
- GI50 (SW-620): 0.481 µM (active)
- GI50 (HL-60): 0.341 µM (active)
- GI50 (NCI-H226): 0.417 µM (active)
- GI50 (SNB-75): 0.287 µM (active)
- GI50 (SN12C): 3.19 µM (inactive)
- GI50 (RPMI-8226): 0.461 µM (active)
- GI50 (HCT-116): 0.347 µM (active)
- GI50 (NCI-H23): 0.335 µM (active)
